In test [1] the test system is Bevacizumab. Briefly: Microtiter plate chromatography of resins, Bevacizumab whole IgG (bound, yield, selectivity). Format: binding, humanized. As to the method: (§1) Resins were assessed in packed mode by microtiter plate chromatography. For each column, approximately 30 μl of resin were transferred to a 384-well filter plate and sealed with appropriate top frits.
(§2) Columns were equilibrated with 6.7 column volumes (cv) of phosphate buffered saline (0.15 M NaCl, 20 mM sodium phosphate, pH 7.3; PBS) prior to injection. Either 3.3 cv of whole IgGs dissolved at 0.75 mg ml^−1, Fab or Fc fragments dissolved at 0.25 mg ml^−1 (all three in PBS) or host cell proteins (HCP) were injected onto columns. Antibody fragments of Bevacizumab (Fab and Fc) were prepared by cleavage of whole IgG with papain protease (3) according to the protocol of the manufacturer. […] Volumes transferred were spun through columns at 50 g for 1-2 min. During injection of samples, acceleration was reduced to 10 g and centrifugation time increased to 5-10 min. Effluent fractions were collected in 384-well plates and concentrations of protein analyzed by Bradford assay. Protein masses mi, mft and me (see below) were calculated as the product of fraction volume and measured protein concentration.
(§3) The fraction of ‘bound’ protein was calculated as the difference between the total mass of protein injected mi and the mass of protein detected in the flowthrough mft, divided by the total mass of protein injected.
(§4) The ‘yield’ of protein was calculated as the mass of protein eluted me, divided by the mass of protein injected mi.
(§5) The ‘selectivity’ of resins was calculated as the fraction of bound antibody BAb, divided by the fraction of bound host cell proteins BHCP.
(§6) the fraction of ‘bound’ protein and the ‘yield’ of protein were calculated for each resin based on data for whole IgG-antibodies. In the case of Bevacizumab fragments and host cell proteins, only the fraction of ‘bound’ protein is given. Selectivity of resins was calculated from data for Bevacizumab Whole IgG and host cell proteins. Due to limited experimental precision, selectivity was truncated beyond values of 10.

In test [2] the target is T1, Bevacizumab (Homo sapiens, UniProt P01857).
T1 construct: fused on or other part: humanised anti-VEGF-A VH domain N-terminal of the gamma-1 constant region (engineered, no UniProt entry)
The test is described as above. The format is binding, humanized. The conditions noted are these: for Bevacizumab IgG Bound (%): fraction of whole IgG Bevacizumab bound to resin; for Bevacizumab IgG Yield (%): mass of whole IgG Bevacizumab eluted / mass injected. Here is the method:
as §1, §2, §3, §4, §5, §6

Another test has as its system Palivizumab. Briefly: Microtiter plate chromatography of resins, Palivizumab (bound, yield). The format is binding, humanized. As to the method: as §1, §2, §3, §4, §6
In another test the test system is Tocilizumab. Briefly: Microtiter plate chromatography of resins, Tocilizumab (bound, yield). The format is binding, humanized. Here is the method:
as §1, §2, §3, §4, §6

Test [3] deals with human poly-IgG (h-poly-IgG). Briefly: Microtiter plate chromatography of resins, human poly-IgG (bound, yield). The format is binding. As to the method:
as §1, §2, §3, §4, §6

The subject of a further test is host cell proteins (HCP). The test can be described thus: Microtiter plate chromatography of resins, host cell proteins (bound). The format is binding, CHO. The conditions noted are these: host cell proteins. As to the method:
Flowthrough from protein A chromatography (referred to as host cell proteins) was derived from the supernatant of antibody-producing CHO cell culture in serum-free medium.
as §1, §2, §3, §6

For `COc1ccc(NC(=O)c2cc(-c3ccco3)[nH]n2)cc1C(=O)NCCCN` [Ligand L20, 5-[5-(2-Furyl)pyrazol-3-yl]carboxamido-2-methoxybenzoic acid N-(3-aminopropyl)amide], in the test on Bevacizumab [1], the Selectivity was 2.1. Moreover, on Bevacizumab [2], the “Bevacizumab IgG Bound (%)” value was found to be 100% and the “Bevacizumab IgG Yield (%)” value was found to be 96%. Also, in the test with Palivizumab, the “Palivizumab Bound (%)” value is 97% and the “Palivizumab Yield (%)” value is given as 84%. In the test on Tocilizumab, the “Tocilizumab Bound (%)” value is 100% and the “Tocilizumab Yield (%)” value worked out at 96%. Further, in test [3], the “h-poly-IgG Bound (%)” value is 93% and the “h-poly-IgG Yield (%)” value came out at 82%. For the same molecule, the “HCP Bound (%)” value with host cell proteins (HCP) is reported as 47%.
In turn, `NCCCNC(=O)c1cccc(C(=O)Nc2cc(-c3ccco3)[nH]n2)c1` [Ligand L21, 3-{N-[5-(2-Furyl)pyrazol-3-yl]carbamoyl}benzoic acid N′-(3-aminopropyl)amide] came in with a Selectivity with Bevacizumab [1] of 2.0. On Bevacizumab [2], the “Bevacizumab IgG Bound (%)” value is reported as 99% and the “Bevacizumab IgG Yield (%)” value is given as 95%. Moreover, in the test with Palivizumab, the “Palivizumab Bound (%)” value stood at 26% and the “Palivizumab Yield (%)” value came out at 26%. Moreover, in the test with Tocilizumab, the “Tocilizumab Bound (%)” value worked out at 52% and the “Tocilizumab Yield (%)” value came to 53%. In test [3], the “h-poly-IgG Bound (%)” value worked out at 54% and the “h-poly-IgG Yield (%)” value was 61%. Moreover, the “HCP Bound (%)” value in the test with host cell proteins (HCP) was determined as 50%.
Consider `COc1ccc(NC(=O)c2cn(C)c3ccccc23)cc1C(=O)NCCCN` [Ligand L25, 2-Methoxy-5-(1-methylindol-3-yl)carboxamidobenzoic acid N-(3-aminopropyl)amide], for which the Selectivity with Bevacizumab [1] came to 2.2. Moreover, at Bevacizumab [2], the “Bevacizumab IgG Bound (%)” value is given as 100% and the “Bevacizumab IgG Yield (%)” value worked out at 95%. Also, in the test on Palivizumab, the “Palivizumab Bound (%)” value is 82% and the “Palivizumab Yield (%)” value came out at 78%. For the same molecule, in the test with Tocilizumab, the “Tocilizumab Bound (%)” value is given as 100% and the “Tocilizumab Yield (%)” value worked out at 93%. For the same molecule, in test [3], the “h-poly-IgG Bound (%)” value is 93% and the “h-poly-IgG Yield (%)” value came out at 81%. In addition, in the test with host cell proteins (HCP), the “HCP Bound (%)” value is 46%.
`COc1ccc(NC(=O)c2c[nH]c3ccccc23)cc1C(=O)NCCCN` [Ligand L26, 5-(Indol-3-yl)carboxamido-2-methoxybenzoic acid N-(3-aminopropyl)amide] showed a Selectivity in the test on Bevacizumab [1] of 2.4. At Bevacizumab [2], the “Bevacizumab IgG Bound (%)” value is given as 100% and the “Bevacizumab IgG Yield (%)” value amounted to 94%. In addition, in the test on Palivizumab, the “Palivizumab Bound (%)” value was 58% and the “Palivizumab Yield (%)” value came to 59%. Also, in the test with Tocilizumab, the “Tocilizumab Bound (%)” value stood at 77% and the “Tocilizumab Yield (%)” value stood at 84%. In test [3], the “h-poly-IgG Bound (%)” value came to 75% and the “h-poly-IgG Yield (%)” value is reported as 74%. Moreover, the “HCP Bound (%)” value in the test on host cell proteins (HCP) is reported as 42%.
`COc1ccc(NC(=O)c2cc(-c3ccco3)n(C)n2)cc1C(=O)N(C)CCCN` [Ligand L28, 5-[5-(2-Furyl)-1-methylpyrazol-3-yl]carboxamido-2-methoxybenzoic acid N-(3-aminopropyl)-N-methylamide] yielded a Selectivity in the test on Bevacizumab [1] of 2.9. Moreover, at Bevacizumab [2], the “Bevacizumab IgG Bound (%)” value is listed as 100% and the “Bevacizumab IgG Yield (%)” value came out at 81%. Also, in the test on Palivizumab, the “Palivizumab Bound (%)” value was 55% and the “Palivizumab Yield (%)” value is reported as 50%. In the test with Tocilizumab, the “Tocilizumab Bound (%)” value is listed as 63% and the “Tocilizumab Yield (%)” value is given as 61%. Also, in test [3], the “h-poly-IgG Bound (%)” value turned out to be 58% and the “h-poly-IgG Yield (%)” value is reported as 44%. Further, the “HCP Bound (%)” value in the test on host cell proteins (HCP) came to 35%.
Consider `CCOc1ccc(NC(=O)c2cc(-c3ccco3)n(C)n2)cc1C(=O)NCCCN` [Ligand L29, 5-[5-(2-Furyl)-1-methylpyrazol-3-yl]carboxamido-2-ethoxybenzoic acid N-(3-aminopropyl)amide], for which, in the test on Bevacizumab [1], the Selectivity worked out at 2.4. In addition, on Bevacizumab [2], the “Bevacizumab IgG Bound (%)” value is recorded as 100% and the “Bevacizumab IgG Yield (%)” value was 84%. In the test on Palivizumab, the “Palivizumab Bound (%)” value came to 100% and the “Palivizumab Yield (%)” value was determined as 88%. Moreover, in the test with Tocilizumab, the “Tocilizumab Bound (%)” value stood at 100% and the “Tocilizumab Yield (%)” value amounted to 96%. Moreover, in test [3], the “h-poly-IgG Bound (%)” value is on record as 95% and the “h-poly-IgG Yield (%)” value was determined as 70%. The “HCP Bound (%)” value in the test with host cell proteins (HCP) is recorded as 43%.
Consider `Cn1nc(C(=O)Nc2ccc(O)c(C(=O)NCCCN)c2)cc1-c1ccco1` [Ligand L30, 5-[5-(2-Furyl)-1-methylpyrazol-3-yl]carboxamido-2-hydroxybenzoic acid N-(3-aminopropyl)amide], for which, in the test on Bevacizumab [1], the Selectivity is 2.4. Also, at Bevacizumab [2], the “Bevacizumab IgG Bound (%)” value was determined as 100% and the “Bevacizumab IgG Yield (%)” value was 93%. Further, in the test on Palivizumab, the “Palivizumab Bound (%)” value turned out to be 68% and the “Palivizumab Yield (%)” value amounted to 66%. In addition, in the test on Tocilizumab, the “Tocilizumab Bound (%)” value is reported as 83% and the “Tocilizumab Yield (%)” value came out at 79%. Also, in test [3], the “h-poly-IgG Bound (%)” value is 74% and the “h-poly-IgG Yield (%)” value turned out to be 53%. Moreover, the “HCP Bound (%)” value in the test on host cell proteins (HCP) worked out at 42%.
As for `COc1ccc(NC(=O)c2onc3ccccc23)cc1C(=O)NCCCN` [Ligand L31, 5-(Benzo[c]isoxazol-3-yl)carboxamido-2-methoxybenzoic acid N-(3-aminopropyl)amide], the Selectivity in the test with Bevacizumab [1] came to 4.4. This molecule registered a selectivity index in the test on Bevacizumab [1] (fraction of bound Bevacizumab whole IgG divided by fraction of bound HCP, truncated beyond 10) of 4.4. Moreover, on Bevacizumab [2], the “Bevacizumab IgG Bound (%)” value was found to be 100% and the “Bevacizumab IgG Yield (%)” value was 96%. In the test on Palivizumab, the “Palivizumab Bound (%)” value was determined as 99% and the “Palivizumab Yield (%)” value was found to be 94%. In addition, in the test with Tocilizumab, the “Tocilizumab Bound (%)” value came to 100% and the “Tocilizumab Yield (%)” value was 98%. Besides, in test [3], the “h-poly-IgG Bound (%)” value was 95% and the “h-poly-IgG Yield (%)” value was 74%. The “HCP Bound (%)” value in the test with host cell proteins (HCP) was determined as 23%.
With `COc1ccc(NC(=O)c2occ3ccccc23)cc1C(=O)NCCCN` [Ligand L32, 5-(Benzo[c]furan-1-yl)carboxamido-2-methoxybenzoic acid N-(3-aminopropyl)amide], in the test on Bevacizumab [1], the Selectivity came to 2.0. For the same molecule, on Bevacizumab [2], the “Bevacizumab IgG Bound (%)” value stood at 100% and the “Bevacizumab IgG Yield (%)” value is 87%. Moreover, in the test with Palivizumab, the “Palivizumab Bound (%)” value is reported as 100% and the “Palivizumab Yield (%)” value was found to be 95%. In the test on Tocilizumab, the “Tocilizumab Bound (%)” value is on record as 100% and the “Tocilizumab Yield (%)” value was 95%. In test [3], the “h-poly-IgG Bound (%)” value amounted to 95% and the “h-poly-IgG Yield (%)” value is reported as 74%. In the test on host cell proteins (HCP), the “HCP Bound (%)” value is 49%.
`COc1ccc(NC(=O)c2cc(C)n(C)n2)cc1C(=O)NCCCN` [Ligand L33, 5-(1,5-Dimethylpyrazol-3-yl)carboxamido-2-methoxybenzoic acid N-(3-aminopropyl)amide] came in with a Selectivity in the test with Bevacizumab [1] of 5.8. In addition, at Bevacizumab [2], the “Bevacizumab IgG Bound (%)” value was 99% and the “Bevacizumab IgG Yield (%)” value is 83%. Further, in the test on Palivizumab, the “Palivizumab Bound (%)” value is recorded as 33% and the “Palivizumab Yield (%)” value is listed as 31%. Moreover, in the test with Tocilizumab, the “Tocilizumab Bound (%)” value was determined as 48% and the “Tocilizumab Yield (%)” value is 51%. Moreover, in test [3], the “h-poly-IgG Bound (%)” value is recorded as 51% and the “h-poly-IgG Yield (%)” value is recorded as 39%. In addition, in the test with host cell proteins (HCP), the “HCP Bound (%)” value is reported as 17%.
On to `COc1ccc(NC(=O)c2cc(C(F)(F)F)n(C)n2)cc1C(=O)NCCCN` [Ligand L34, 2-Methoxy-5-[1-methyl-5-(trifluoromethyl)pyrazol-3-yl]carboxamidobenzoic acid N-(3-aminopropyl)amide], for which, in the test on Bevacizumab [1], the Selectivity is reported as 2.6. In addition, at Bevacizumab [2], the “Bevacizumab IgG Bound (%)” value was 100% and the “Bevacizumab IgG Yield (%)” value is given as 89%. In the test on Palivizumab, the “Palivizumab Bound (%)” value is 73% and the “Palivizumab Yield (%)” value came out at 72%. For the same molecule, in the test with Tocilizumab, the “Tocilizumab Bound (%)” value is on record as 85% and the “Tocilizumab Yield (%)” value is 80%. In addition, in test [3], the “h-poly-IgG Bound (%)” value worked out at 78% and the “h-poly-IgG Yield (%)” value turned out to be 61%. The “HCP Bound (%)” value in the test with host cell proteins (HCP) is recorded as 39%.
For `COc1ccc(NC(=O)c2nccc3ccccc23)cc1C(=O)NCCCN` [Ligand L35, 5-(1-Isoquinolinyl)carboxamido-2-methoxybenzoic acid N-(3-aminopropyl)amide], the Selectivity in the test with Bevacizumab [1] was found to be 2.0. In addition, on Bevacizumab [2], the “Bevacizumab IgG Bound (%)” value was found to be 100% and the “Bevacizumab IgG Yield (%)” value came out at 96%. In addition, in the test on Palivizumab, the “Palivizumab Bound (%)” value stood at 100% and the “Palivizumab Yield (%)” value was 95%. Also, in the test on Tocilizumab, the “Tocilizumab Bound (%)” value came out at 100% and the “Tocilizumab Yield (%)” value is recorded as 92%. In test [3], the “h-poly-IgG Bound (%)” value came to 95% and the “h-poly-IgG Yield (%)” value stood at 76%. The “HCP Bound (%)” value in the test with host cell proteins (HCP) is on record as 51%.

The values are drawn from patent US20130131321A1, “LIGANDS FOR ANTIBODY AND Fc-FUSION PROTEIN PURIFICATION BY AFFINITY CHROMATOGRAPHY” (GRAFFINITY PHARMACEUTICALS GMBH, priority 2010, published 2013).
